What was measured:
physchem = settings: octan-1-ol/water
in vitro = settings: human

Row | Structure (SMILES) | logD (physchem; pH 7.4, LogD7.4) | microsomal CLint (in vitro; microsomes) | microsomal CLint (in vitro; liver microsomes) | logD (physchem; pH 7.4)
1 | COc1ccc(C(=O)NCCN2CCN(Cc3ccc(Cl)c(Cl)c3)CC2)cc1Cl | 3.74 | 50.5 µL/min/mg |  | 
2 | O=C(O)[C@@H](c1ccccc1)N1CCC(CN2CCC(Oc3ccc(Cl)c(Cl)c3)CC2)CC1 | 2.14 | < 3 µL/min/mg |  | 
3 | Nc1nc(Nc2ccc(F)c(Cl)c2)c2nc[nH]c2n1 | 2.75 |  | 15 µL/min/mg | 
4 | Cc1cc(Cl)ccc1OC1CCN(C[C@H](O)CNC(=O)c2c[nH]nc2C(F)(F)F)CC1 | 3.02 | < 3 µL/min/mg |  | 
5 | Cc1ccc(C(=O)NC(C)C)cc1-n1cnc2ccc(N3CCN(C)CC3)cc2c1=O | 1.56 |  | < 3 µL/min/mg | 
6 | CCO/N=C(\c1ccc(Br)cc1)C1CCN(C2(C)CCN(C(=O)c3c(Cl)cncc3Cl)CC2)CC1 | 4 |  | 4 µL/min/mg | 
7 | CCCC1CCCCC(N)=N1 (centres undefined) | 1.1 |  | < 3 µL/min/mg | 
8 | C=CCN(C(=O)Cc1ccc(S(C)(=O)=O)cc1)C1CCN(CCC(c2ccccc2)c2ccccc2)CC1 | 3.1 |  | 10 µL/min/mg | 
9 | O=C(NC[C@@H](O)CN1CCC(Oc2ccc(Cl)c(Cl)c2)CC1)c1c[nH]c2ccccc12 | 3.91 | < 3 µL/min/mg |  | 
10 | Cc1ccc2nc(CCNCCCO)ccc2c1NC(=O)CC12CC3CC(CC(C3)C1)C2 | 1.18 |  | 33 µL/min/mg | 
11 | N=C(N)c1cc2c(I)cccc2s1 | 0.74 |  | 4 µL/min/mg | 
12 | Cc1c(Sc2ccc(Cl)cc2)c2cc(Cl)ccc2n1C(C)C(=O)O (centres undefined) | 3.56 | < 3 µL/min/mg |  | 
13 | O=c1[nH]c2c(O)ccc([C@@H](O)CNCCCSCCNCCc3cccc(Cl)c3)c2s1 | 1.06 |  | 20 µL/min/mg | 
14 | O=C(NC[C@@H](O)CN1CCC(Oc2ccc(Cl)c(Cl)c2)CC1)c1n[nH]c2ccccc12 | 2.95 |  | < 3 µL/min/mg | 
15 | CC1(C)[C@@H]2CC[C@@]1(CS(=O)(=O)NC1CCN(c3ccc(C(F)(F)F)cn3)CC1)C(=O)C2 | 3.84 |  | 75 µL/min/mg | 
16 | Nc1c(C(=O)c2cccc(OC[C@H](O)CO)c2)cnn1-c1ccc(F)cc1 | 1.94 | < 3 µL/min/mg |  | 
17 | O=C(NS(=O)(=O)c1cccc(Cl)c1)N1CCC(N2CCC(Oc3ccc(Cl)c(Cl)c3)CC2)CC1 | 2.62 |  | 6 µL/min/mg | 
18 | NS(=O)(=O)c1ccc(Nc2nccc(-c3ccccc3)n2)cc1 | 2.86 |  | < 3 µL/min/mg | 
19 | CC(NCC(O)c1ccc([N+](=O)[O-])cc1)C12CC3CC(CC(C3)C1)C2 (centres undefined) | 3.53 |  | 30.5 µL/min/mg | 
20 | Cc1ccc2c(c1)c(-c1ccnc3c(C#N)cccc13)c(C)n2CC(=O)O | 0.52 |  | < 3 µL/min/mg | 
21 | N#Cc1c(-c2ccccc2)nc(SCc2ccccc2)[nH]c1=O | 1.56 | 6 µL/min/mg |  | 
22 | C[C@H]1CN(Cc2cc(Cl)ccc2OCC(=O)O)CCN1C(=O)Cc1cccc(Cl)c1 |  | < 3 µL/min/mg |  | 0.78
23 | Cc1ccc(C(=O)Nc2ccon2)cc1NC(=O)c1cnn(-c2ccccc2F)c1N | 2.6 |  | < 3 µL/min/mg | 

Row | Structure (SMILES) | logD (physchem; pH 7.4, LogD7.4) | microsomal CLint (in vitro; microsomes) | microsomal CLint (in vitro; liver microsomes) | logD (physchem; pH 7.4)
24 | O=C(NS(=O)(=O)Cc1ccccc1)N1CCC(N2CCC(Oc3ccc(Cl)c(Cl)c3)CC2)CC1 | 2.13 |  | < 3 µL/min/mg | 
25 | COCCNCc1ccc(-c2cc(C(N)=O)c(NC(N)=O)s2)cc1 | 0.87 |  | 3 µL/min/mg | 
26 | O=C(NC[C@@H](O)CN1CCC(Oc2ccc(Cl)c(Cl)c2)CC1)c1cnnc2ccccc12 | 3.28 |  | 8 µL/min/mg | 
27 | O=C(NC[C@@H](O)CN1CCC(Oc2ccc(Cl)c(Cl)c2)CC1)c1n[nH]c(=O)c2ccccc12 | 3.69 |  | 3 µL/min/mg | 
28 | Nc1nccc(-n2ccc3ccccc32)n1 | 2.71 |  | 112 µL/min/mg | 
29 | Nc1nnc(-c2ccccc2)s1 | 1.8 |  | 3 µL/min/mg | 
30 | COc1ccc(C)c(NC(=O)CC23CC4CC(CC(C4)C2)C3)c1 | 3.96 |  | > 150 µL/min/mg | 
31 | CSc1nc(-c2ccccc2)nn1Cc1ccccc1 | 3.83 | 116 µL/min/mg |  | 
32 | CCCCC(CC)CNC(=O)c1cc(-n2ncc(=O)[nH]c2=O)ccc1Cl (centres undefined) | 2.41 |  | 24 µL/min/mg | 
33 | NC1CCN(c2nccc(C(=O)NCC34CC5CC(CC(C5)C3)C4)c2Cl)CC1 | 1.19 | 41 µL/min/mg |  | 
34 | CCc1nc2c(N)nc3ccccc3c2n1Cc1ccccc1 | 3.29 |  | < 3 µL/min/mg | 
35 | Cc1cccc(Nc2ccccc2C(=O)O)c1C [MEFENAMIC ACID] | 1.89 | 9 µL/min/mg |  | 
36 | Cc1ccc(C#N)cc1-c1cc(C(F)(F)F)ccc1OCC(=O)O | 0.15 | < 3 µL/min/mg |  | 
37 | CC(=O)Nc1ccc(O)cc1OC[C@@H](O)CN1CCC2(CC1)Cc1cc(F)ccc1O2 | 2.1 | < 3 µL/min/mg |  | 
38 | NC(=O)Nc1sc(-c2ccccc2)cc1C(N)=O | 2.42 | 21 µL/min/mg |  | 
39 | Cc1c(Sc2ccc(Cl)cc2)c2ccc(S(C)(=O)=O)cc2n1CC(=O)O | 0.79 | < 3 µL/min/mg |  | 
40 | Nc1nc(Nc2cccc(Br)c2)c2[nH]cnc2n1 | 3.04 | 16 µL/min/mg |  | 
41 | COc1ccccc1CNCc1ccc(CCNC[C@H](O)c2ccc(O)c3[nH]c(=O)sc23)cc1 | 0.15 | 22 µL/min/mg |  | 
42 | COc1ccc(-c2ccnc(N)n2)cc1 | 2.08 |  | 41 µL/min/mg | 
43 | Cc1ccc2c(c1)c(-c1ccnc3ccc(C(F)(F)F)cc13)c(C)n2CC(=O)O | 1.78 |  | 23 µL/min/mg | 
44 | CN(C)CCCOc1ccc(-c2cc(C(N)=O)c(NC(N)=O)s2)cc1 | 0.64 |  | 6 µL/min/mg | 
45 | Cc1c(Cl)ccc(OC2CCN(C[C@H](O)CNC(=O)c3c[nH]nc3C(F)(F)F)CC2)c1Cl | 3.66 |  | < 3 µL/min/mg | 
46 | O=C(CC12CC3CC(CC(C3)C1)C2)Nc1c(Cl)ccc2nc(CN3CCN(CCO)CC3)ccc12 | 2.93 |  | 79.5 µL/min/mg | 

Row | Structure (SMILES) | logD (physchem; pH 7.4, LogD7.4) | microsomal CLint (in vitro; microsomes) | microsomal CLint (in vitro; liver microsomes) | logD (physchem; pH 7.4)
47 | c1ccc(Sc2ccc3ccccc3n2)cc1 | 3.92 | 61 µL/min/mg |  | 
48 | O=C(NC[C@@H](O)CN1CCC(Oc2ccc(Cl)c(Cl)c2)CC1)n1c(=O)[nH]c2ccccc21 | 4.46 | < 3 µL/min/mg |  | 
49 | COCCNCc1ccc(Nc2ncc3cc(-c4ccncc4)ccc3n2)cc1 | 1.86 |  | 42.7 µL/min/mg | 
50 | N#Cc1ccc(Nc2nccc(NC3CC3)n2)cc1 | 3.01 |  | 45 µL/min/mg | 
51 | CC(C)C[C@H](NC(=O)N1CCOCC1)C(=O)NCC#N | 0.08 |  | < 3 µL/min/mg | 
52 | Nc1nc2nc(SCc3cccc(F)c3F)[nH]c(=O)c2s1 | 2.5 |  | < 3 µL/min/mg | 
53 | O=C(O)C(c1ccccc1)N1CCCC(CN2CCC(Oc3ccc(Cl)c(Cl)c3)CC2)C1 (centres undefined) | 2.6 |  | < 3 µL/min/mg | 
54 | Cc1cc(Oc2ccc3c(c2)OCO3)nc(Oc2ccc(-n3ccnc3)cc2)n1 | 3.47 |  | < 3 µL/min/mg | 
55 | CC1CCC(CC(=O)Nc2cccc3ncccc23)CC1 (centres undefined) | 3.56 |  | 38 µL/min/mg | 
56 | COc1cccc2c(-c3c(C)n(CC(=O)O)c4ccc(C)cc34)ccnc12 | 0.49 |  | 5 µL/min/mg | 
57 | O=C(NCC12CC3CC(CC(C3)C1)C2)c1ccccc1Cl | 4.05 |  | 69 µL/min/mg | 
58 | CC1CN(S(=O)(=O)c2ccccc2)CCN1Cc1cc(Cl)ccc1OCC(=O)O (centres undefined) | 0.69 | < 3 µL/min/mg |  | 
59 | Cc1cnc(Oc2ccc(-n3ccnc3)cc2)nc1Oc1ccc2c(c1)OCO2 | 3.56 |  | < 3 µL/min/mg | 
60 | CCN(C(=O)Cc1ccc(S(C)(=O)=O)cc1)C1CCN(CCC(c2ccccc2)c2ccccc2)CC1 | 3 |  | 16 µL/min/mg | 
61 | CCO[C@@H]1OC(=O)C[C@@H]1NC(=O)[C@@H]1CCCN2C(=O)CC[C@H](NC(=O)c3nccc4ccccc34)C(=O)N12 | 1.16 |  | < 3 µL/min/mg | 
62 | C[C@H](CO)Nc1nc(SCc2ccccc2)nc2[nH]c(=O)[nH]c12 | 2.75 |  | < 3 µL/min/mg | 
63 | N#Cc1cc(Cl)ccc1O[C@H](CCN)c1ccccc1 | 0.91 |  | < 3 µL/min/mg | 
64 | CC(=O)c1ccc(N2CCN(S(=O)(=O)C[C@]34CC[C@H](CC3=O)C4(C)C)CC2)nc1 | 2.21 |  | > 150 µL/min/mg | 
65 | Nc1ccc(S(=O)(=O)c2ccc(N)cc2)cc1 [DAPSONE] | 0.88 | < 3 µL/min/mg |  | 
66 | O=C(CCc1ccccc1O)Nc1ccccc1 | 2.71 |  | 30 µL/min/mg | 
67 | CCN(C(=O)Cc1ccc([N+](=O)[O-])cc1)C1CCN(CCC(c2ccccc2)c2ccccc2)CC1 | 4.1 |  | 13 µL/min/mg | 

Reference: ChEMBL document CHEMBL3301361, “Experimental in vitro DMPK and physicochemical data on a set of publicly disclosed compounds”
